Some results are limits rather than exact numbers.

The assay addresses T1, APOBEC3G (Homo sapiens, UniProt Q9HC16).
T1 construct: expressed in transfected cells; crude lysate treated with RNase A
In words: Fluorescence-based APOBEC3G DNA cytosine deaminase assay for HTS, APOBEC3G containing cell lysate. Type of assay: biochemical. As to conditions: for inhibited cytosine deaminase activity (FIG. 5): LOPAC1280 library screened in quadruplicate, cell lysate. An excerpt: FIG. 4 contains a schematic of a fluorescence based APOBEC3G DNA cytosine deaminase activity assay. The single-strand DNA oligonucleotide substrate has 3 features: i) an APOBEC3G deamination target cite 5′CCCA (with the 3rd C strongly preferred by APOBEC3G), ii) a fluorescent 6-FAM label on the 5′ end (excitable by 490 nm wavelength light) and iii) a 6-FAM ‘quenching’ molecule TAMRA on the 3′ end. This intact ssDNA substrate emits low levels of background fluorescence because the 6-FAM is quenched by the nearby TAMRA. Low-molecular mass (LMM) APOBEC3G, derived from an RNase sensitive high-molecular mass (HMM) cellular complex, efficiently deaminates the indicated cytosine base yielding a uracil. Uracil DNA glycosylase excises the uracil base, which creates an a-basic site that is sensitive to hydrolytic attack by the hydroxide ion of NaOH or heated water (H2O). Finally, cleavage of the ssDNA frees 6-FAM from inhibition by TAMRA and results in fluorescence (490 nm light is used to excite 6-FAM and fluorescence is detected at 517 nm).
APOBEC3G containing cell lysates were prepared from near-confluent APOBEC3G expressing 293 stable cell line (211-21, Harris et al., Cell 2003). DMEM growth medium was aspirated and the cells suspended in 1xPBS, 1 mM EDTA, pH 7.4. The cells were pelleted at 1.2K rpm for 5-10 minutes. The supernatant was aspirated and the tube containing the pelleted cells was placed on ice. Thirty mL of lysis buffer (25 mM HEPES, pH7.4, 150 mM NaCl, 0.5% Triton X-100, 1 mM EDTA, 1 mM MgCl2, 1 mM ZnCl2, 10% Glycerol, and Roche EDTA free complete protease inhibitor (added before use)) was added per 3-5 g cell pellet along with 20 μg/mL RNase A (from Qiagen, catalog no. 19101, 100 mg/ml RNase A solution) and the cells suspended by pipetting. The cells were transferred to a cold homogenizer and homogenized for 10 strokes. […] The protein concentration in the cell lysate was quantified using a Bio-Rad protein assay kit or DC protein assay kit, following the manufacturer's instructions.
A fluorescence-based deaminase activity assay for HTS was performed as follows: 1) 20 μl of the crude cell lysate (15 μg protein, diluted in cell lysis buffer, pH7.4) was placed into 384 well plates using Perkin Elmer flexdrop. […] 5) 3 μl N HCl+27 μl 2 M Tris.Cl (pH7.9) was added using Perkin Elmer flexdrop, mixed by shaking, and fluorescence read with excitation at 492 nm and emission at 517 nm at room temperature in LJL Analyst AD.
A 1280 compound library (LOPAC^1280™, from Sigma-Aldrich) was screened in quadruplicate using the method set forth in Example 1. […] In these experiments, each compound was evaluated a total of four times—twice on one day and twice more on the following day. […]

T1 sequence (Q9HC16 whole entry): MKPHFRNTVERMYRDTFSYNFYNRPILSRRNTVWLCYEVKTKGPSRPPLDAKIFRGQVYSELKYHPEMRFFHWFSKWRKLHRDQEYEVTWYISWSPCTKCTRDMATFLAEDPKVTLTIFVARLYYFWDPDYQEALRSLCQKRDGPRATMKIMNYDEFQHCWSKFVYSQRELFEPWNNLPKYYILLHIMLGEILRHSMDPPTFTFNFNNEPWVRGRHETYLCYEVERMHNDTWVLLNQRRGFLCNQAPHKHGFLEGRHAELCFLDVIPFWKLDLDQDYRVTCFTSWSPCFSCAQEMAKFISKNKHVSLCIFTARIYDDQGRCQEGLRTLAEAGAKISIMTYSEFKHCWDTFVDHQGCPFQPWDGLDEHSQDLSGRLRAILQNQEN

Regarding `O=C(O)c1cc[c]([Hg][Cl])cc1` [4-chloromercuribenzoic acid], the “inhibited cytosine deaminase activity (FIG. 5)” value is recorded as “Inhibitors of cytosine deaminase”.
For `O=C(O)C1=CC(=C(c2ccc(O)c(C(=O)O)c2)c2ccc(O)c(C(=O)O)c2)C=CC1=O` [ATA], the “inhibited cytosine deaminase activity (FIG. 5)” value is “Inhibitors of cytosine deaminase”.
On the same count and under the same terms, in the case of `Cc1nc(N=Nc2cc(S(=O)(=O)O)c3cc([N+](=O)[O-])cc(S(=O)(=O)O)c3c2)c(COP(=O)(O)O)c(C=O)c1O` [PPNDS] it was “Inhibitors of cytosine deaminase”.
As to `Cc1ccc(C(=O)Nc2ccc(S(=O)(=O)O)c3cc(S(=O)(=O)O)cc(S(=O)(=O)O)c23)cc1NC(=O)c1cccc(NC(=O)Nc2cccc(C(=O)Nc3cc(C(=O)Nc4ccc(S(=O)(=O)O)c5cc(S(=O)(=O)O)cc(S(=O)(=O)O)c45)ccc3C)c2)c1` [suramin], the inhibition (as a rule, the percentage by which the read-out fell short of the control) at 10 µM (repeated screen, cell lysate incubated with 10 μM solution of the compound in DMSO, read-out: inhibition of fluorescence relative to positive controls (primary active)) is no less than 35%.
